These results are taken from ChEMBL document CHEMBL5696442, “Discovery of type II inhibitors of TGFβ-activated kinase 1 (TAK1) and mitogen-activated protein kinase kinase kinase kinase 2 (MAP4K2)” (J Med Chem, 2015).

Calls of active or inactive are those of the source. The rule behind the calls is not given here.

Experiment [1] deals with Calcium/calmodulin-dependent protein kinase type II subunit gamma (Homo sapiens) (UniProt Q13555). Briefly: Inhibition of CaMK2g Lys1 labeling site harbouring KTSTQEYAAKIINTKK in human A-375 cells at 5 uM by KiNativ Profiling analysis relative to control. In kind it is cell-based.
The target in experiment [2] is Non-receptor tyrosine-protein kinase TYK2 (Homo sapiens) (UniProt P29597). In words: Inhibition of TYK2 JH2 pseudokinase domain (unknown origin) at 1 uM by Ambit Kinomescan binding assay relative to control.
The target of experiment [3] is 5'-AMP-activated protein kinase catalytic subunit alpha-2 (Homo sapiens) (UniProt P54646). In words: Inhibition of AMPKa2 Lys2 labeling site in human A-375 cells at 0.05 uM by KiNativ Profiling analysis relative to control. It counts as cell-based.
The target of experiment [4] is Serine/threonine-protein kinase 38-like (Homo sapiens) (UniProt Q9Y2H1). Briefly: Inhibition of NDR2 Lys1 labeling site harbouring KDTGHIYAMKILR in human A-375 cells at 0.05 uM by KiNativ Profiling analysis relative to control. It counts as cell-based.
Chain of Serine/threonine-protein kinase 38-like (Homo sapiens) (Q9Y2H1 2-464 limits assumed): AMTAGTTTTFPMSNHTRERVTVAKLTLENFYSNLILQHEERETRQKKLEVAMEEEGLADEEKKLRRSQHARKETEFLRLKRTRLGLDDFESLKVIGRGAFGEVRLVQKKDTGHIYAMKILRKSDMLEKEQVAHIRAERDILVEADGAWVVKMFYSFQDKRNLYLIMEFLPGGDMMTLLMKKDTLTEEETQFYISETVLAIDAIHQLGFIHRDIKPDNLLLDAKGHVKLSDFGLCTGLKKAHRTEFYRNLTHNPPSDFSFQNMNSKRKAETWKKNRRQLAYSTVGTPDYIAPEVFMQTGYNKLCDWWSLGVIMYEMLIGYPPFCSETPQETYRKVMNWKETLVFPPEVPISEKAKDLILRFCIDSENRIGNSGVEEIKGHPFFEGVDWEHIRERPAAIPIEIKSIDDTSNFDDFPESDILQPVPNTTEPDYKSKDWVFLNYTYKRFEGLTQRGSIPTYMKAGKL
Experiment [5] deals with T1, Serine/threonine-protein kinase Chk1 (Homo sapiens) (UniProt O14757).
T1 sequence (whole entry): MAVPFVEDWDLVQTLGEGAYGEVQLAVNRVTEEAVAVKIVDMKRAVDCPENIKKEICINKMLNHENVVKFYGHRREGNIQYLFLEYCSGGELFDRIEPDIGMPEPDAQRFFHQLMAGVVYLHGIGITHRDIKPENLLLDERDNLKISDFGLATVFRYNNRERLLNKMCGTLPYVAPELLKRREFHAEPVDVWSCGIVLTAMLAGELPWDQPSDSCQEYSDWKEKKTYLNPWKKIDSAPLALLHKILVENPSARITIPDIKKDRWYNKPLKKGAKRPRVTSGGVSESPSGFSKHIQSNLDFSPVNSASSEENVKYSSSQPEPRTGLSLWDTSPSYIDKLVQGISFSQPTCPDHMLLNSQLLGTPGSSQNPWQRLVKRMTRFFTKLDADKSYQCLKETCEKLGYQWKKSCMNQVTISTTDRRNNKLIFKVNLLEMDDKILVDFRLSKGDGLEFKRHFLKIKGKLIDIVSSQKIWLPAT
Briefly: Inhibition of CHK1 Lys2 labeling site harbouring DIKPENLLLDERDNLK in human A-375 cells at 5 uM by KiNativ Profiling analysis relative to control. In kind it is cell-based.

For experiment [6], the target named is Casein kinase II subunit alpha (Homo sapiens) (UniProt P68400). Briefly: Inhibition of CK2a1 in human Huh-7 cells at 1 uM by KiNativ Profiling analysis relative to control. It counts as cell-based.
Chain of Casein kinase II subunit alpha (Homo sapiens) (P68400 whole entry, looked up): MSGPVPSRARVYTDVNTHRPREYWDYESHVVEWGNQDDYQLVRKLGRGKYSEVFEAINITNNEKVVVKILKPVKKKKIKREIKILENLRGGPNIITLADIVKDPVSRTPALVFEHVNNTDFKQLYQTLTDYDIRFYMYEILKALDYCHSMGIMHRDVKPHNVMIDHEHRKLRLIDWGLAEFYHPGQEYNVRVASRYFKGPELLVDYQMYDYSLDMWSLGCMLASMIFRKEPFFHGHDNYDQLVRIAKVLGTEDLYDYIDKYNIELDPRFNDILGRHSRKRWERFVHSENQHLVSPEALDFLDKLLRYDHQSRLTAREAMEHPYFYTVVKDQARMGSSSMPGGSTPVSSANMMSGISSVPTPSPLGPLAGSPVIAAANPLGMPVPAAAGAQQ
Experiment [7] addresses Mitogen-activated protein kinase kinase kinase kinase 4 (Homo sapiens, UniProt O95819). Briefly: Inhibition of ZC1/HGK K2 labeling site in human Huh-7 cells at 10 uM by KiNativ Profiling analysis relative to control. It counts as cell-based.
In experiment [8] the target is Dual specificity mitogen-activated protein kinase kinase 1 (Homo sapiens) (UniProt Q02750). In words: Inhibition of MAP2K1 Lys2 labeling site harbouring DVKPSNILVNSR in human A-375 cells at 5 uM by KiNativ Profiling analysis relative to control. In kind it is cell-based.
For experiment [9], the target named is Serine/threonine-protein kinase Nek5 (Homo sapiens) (UniProt Q6P3R8). In words: Inhibition of NEK5 (unknown origin) at 10 uM by Ambit Kinomescan binding assay.
Experiment [10] addresses T2, Mitogen-activated protein kinase kinase kinase kinase 2 (Homo sapiens) (UniProt Q12851).
T2 sequence (whole entry): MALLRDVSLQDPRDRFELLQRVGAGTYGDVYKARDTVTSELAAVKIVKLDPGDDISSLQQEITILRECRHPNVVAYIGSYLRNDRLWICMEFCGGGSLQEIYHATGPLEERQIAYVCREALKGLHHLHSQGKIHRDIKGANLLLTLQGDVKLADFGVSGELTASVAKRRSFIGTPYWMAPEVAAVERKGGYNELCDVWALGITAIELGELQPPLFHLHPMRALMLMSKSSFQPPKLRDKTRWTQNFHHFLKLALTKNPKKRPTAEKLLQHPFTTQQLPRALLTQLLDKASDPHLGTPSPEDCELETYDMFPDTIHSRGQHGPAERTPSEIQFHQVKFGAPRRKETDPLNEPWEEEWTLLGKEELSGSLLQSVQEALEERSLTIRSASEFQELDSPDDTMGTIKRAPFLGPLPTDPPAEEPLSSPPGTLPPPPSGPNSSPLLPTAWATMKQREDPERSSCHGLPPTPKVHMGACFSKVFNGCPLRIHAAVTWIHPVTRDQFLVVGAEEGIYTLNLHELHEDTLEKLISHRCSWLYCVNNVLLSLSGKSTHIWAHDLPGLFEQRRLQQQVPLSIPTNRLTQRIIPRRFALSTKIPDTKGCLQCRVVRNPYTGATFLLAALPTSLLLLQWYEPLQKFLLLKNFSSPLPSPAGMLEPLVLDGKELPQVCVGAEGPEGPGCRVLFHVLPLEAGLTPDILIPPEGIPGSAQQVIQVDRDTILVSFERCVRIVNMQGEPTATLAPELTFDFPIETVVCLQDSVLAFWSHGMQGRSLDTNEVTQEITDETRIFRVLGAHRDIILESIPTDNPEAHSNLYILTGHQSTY
In words: Inhibition of MAP4K2 Lys2 labeling site in human A-375 cells at 0.5 uM by KiNativ Profiling analysis relative to control. It counts as cell-based.

Experiment [11] addresses Serine/threonine-protein kinase 38-like (Homo sapiens) (UniProt Q9Y2H1). Briefly: Inhibition of NDR2 Lys1 labeling site harbouring DTGHIYAMKILR in human A-375 cells at 0.5 uM by KiNativ Profiling analysis relative to control. In kind it is cell-based.
In experiment [12] the target is Maternal embryonic leucine zipper kinase (Homo sapiens) (UniProt Q14680). In words: Inhibition of MELK Lys2 labeling site in human A-375 cells at 0.05 uM by KiNativ Profiling analysis relative to control. It counts as cell-based.
Chain of Maternal embryonic leucine zipper kinase (Homo sapiens) (Q14680 whole entry, looked up): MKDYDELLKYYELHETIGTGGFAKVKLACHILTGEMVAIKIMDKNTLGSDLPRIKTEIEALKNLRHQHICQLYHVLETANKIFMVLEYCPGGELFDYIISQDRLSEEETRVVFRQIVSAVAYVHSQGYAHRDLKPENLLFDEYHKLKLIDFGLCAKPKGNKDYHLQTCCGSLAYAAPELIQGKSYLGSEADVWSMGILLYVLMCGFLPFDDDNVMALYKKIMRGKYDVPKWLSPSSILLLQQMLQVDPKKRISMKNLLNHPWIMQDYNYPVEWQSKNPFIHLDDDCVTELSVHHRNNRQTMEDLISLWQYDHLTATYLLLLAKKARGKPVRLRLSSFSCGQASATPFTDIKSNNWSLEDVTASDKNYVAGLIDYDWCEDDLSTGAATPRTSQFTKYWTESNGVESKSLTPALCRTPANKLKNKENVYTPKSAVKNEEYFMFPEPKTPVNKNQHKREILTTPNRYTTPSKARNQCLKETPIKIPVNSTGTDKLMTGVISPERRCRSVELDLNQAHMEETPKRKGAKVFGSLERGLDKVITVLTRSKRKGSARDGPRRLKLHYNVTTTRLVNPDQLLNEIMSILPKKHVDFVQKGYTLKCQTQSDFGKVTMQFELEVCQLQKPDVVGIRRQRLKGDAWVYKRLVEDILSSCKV
The target in experiment [13] is Activated CDC42 kinase 1 (Homo sapiens) (UniProt Q07912). Briefly: Inhibition of TNK2 (unknown origin) at 10 uM by Ambit Kinomescan binding assay.
In experiment [14] the target is Ribosomal protein S6 kinase alpha-1 (Homo sapiens) (UniProt Q15418). Briefly: Inhibition of RSK1 domain2 Lys2 labeling site in human Huh-7 cell lysate at 1 uM by KiNativ Profiling analysis relative to control. It counts as subcellular.
The target in experiment [15] is Tyrosine-protein kinase Fer (Homo sapiens, UniProt P16591). Briefly: Inhibition of FER Lys1 labeling site in human Huh-7 cells at 1 uM by KiNativ Profiling analysis relative to control. In kind it is cell-based.
Chain of Tyrosine-protein kinase Fer (P16591 whole entry, looked up): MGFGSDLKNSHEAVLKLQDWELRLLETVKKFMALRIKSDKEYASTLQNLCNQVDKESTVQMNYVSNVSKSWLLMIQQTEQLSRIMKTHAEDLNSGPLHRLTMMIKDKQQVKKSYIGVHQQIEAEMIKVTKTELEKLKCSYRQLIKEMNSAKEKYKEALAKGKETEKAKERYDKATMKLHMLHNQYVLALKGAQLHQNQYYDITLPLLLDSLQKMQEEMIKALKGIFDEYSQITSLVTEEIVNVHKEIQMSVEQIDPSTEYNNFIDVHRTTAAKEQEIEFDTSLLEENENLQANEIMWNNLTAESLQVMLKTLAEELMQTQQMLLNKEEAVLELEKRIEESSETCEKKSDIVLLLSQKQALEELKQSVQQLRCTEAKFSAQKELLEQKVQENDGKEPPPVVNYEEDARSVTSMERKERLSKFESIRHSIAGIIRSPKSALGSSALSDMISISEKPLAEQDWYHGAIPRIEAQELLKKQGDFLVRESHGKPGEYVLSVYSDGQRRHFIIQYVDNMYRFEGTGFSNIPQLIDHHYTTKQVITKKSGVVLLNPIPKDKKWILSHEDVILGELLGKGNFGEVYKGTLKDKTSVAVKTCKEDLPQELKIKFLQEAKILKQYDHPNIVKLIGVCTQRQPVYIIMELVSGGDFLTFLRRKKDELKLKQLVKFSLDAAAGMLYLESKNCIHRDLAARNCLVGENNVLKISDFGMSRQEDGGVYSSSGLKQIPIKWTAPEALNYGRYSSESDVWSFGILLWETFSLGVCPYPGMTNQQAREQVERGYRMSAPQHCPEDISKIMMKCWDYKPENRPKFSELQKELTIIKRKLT
The target in experiment [16] is Microtubule-associated serine/threonine-protein kinase 4 (Homo sapiens) (UniProt O15021). In words: Inhibition of MAST4 Lys2 labeling site in human Huh-7 cells at 1 uM by KiNativ Profiling analysis relative to control. In kind it is cell-based.
Chain of Microtubule-associated serine/threonine-protein kinase 4 (Homo sapiens) (O15021 whole entry): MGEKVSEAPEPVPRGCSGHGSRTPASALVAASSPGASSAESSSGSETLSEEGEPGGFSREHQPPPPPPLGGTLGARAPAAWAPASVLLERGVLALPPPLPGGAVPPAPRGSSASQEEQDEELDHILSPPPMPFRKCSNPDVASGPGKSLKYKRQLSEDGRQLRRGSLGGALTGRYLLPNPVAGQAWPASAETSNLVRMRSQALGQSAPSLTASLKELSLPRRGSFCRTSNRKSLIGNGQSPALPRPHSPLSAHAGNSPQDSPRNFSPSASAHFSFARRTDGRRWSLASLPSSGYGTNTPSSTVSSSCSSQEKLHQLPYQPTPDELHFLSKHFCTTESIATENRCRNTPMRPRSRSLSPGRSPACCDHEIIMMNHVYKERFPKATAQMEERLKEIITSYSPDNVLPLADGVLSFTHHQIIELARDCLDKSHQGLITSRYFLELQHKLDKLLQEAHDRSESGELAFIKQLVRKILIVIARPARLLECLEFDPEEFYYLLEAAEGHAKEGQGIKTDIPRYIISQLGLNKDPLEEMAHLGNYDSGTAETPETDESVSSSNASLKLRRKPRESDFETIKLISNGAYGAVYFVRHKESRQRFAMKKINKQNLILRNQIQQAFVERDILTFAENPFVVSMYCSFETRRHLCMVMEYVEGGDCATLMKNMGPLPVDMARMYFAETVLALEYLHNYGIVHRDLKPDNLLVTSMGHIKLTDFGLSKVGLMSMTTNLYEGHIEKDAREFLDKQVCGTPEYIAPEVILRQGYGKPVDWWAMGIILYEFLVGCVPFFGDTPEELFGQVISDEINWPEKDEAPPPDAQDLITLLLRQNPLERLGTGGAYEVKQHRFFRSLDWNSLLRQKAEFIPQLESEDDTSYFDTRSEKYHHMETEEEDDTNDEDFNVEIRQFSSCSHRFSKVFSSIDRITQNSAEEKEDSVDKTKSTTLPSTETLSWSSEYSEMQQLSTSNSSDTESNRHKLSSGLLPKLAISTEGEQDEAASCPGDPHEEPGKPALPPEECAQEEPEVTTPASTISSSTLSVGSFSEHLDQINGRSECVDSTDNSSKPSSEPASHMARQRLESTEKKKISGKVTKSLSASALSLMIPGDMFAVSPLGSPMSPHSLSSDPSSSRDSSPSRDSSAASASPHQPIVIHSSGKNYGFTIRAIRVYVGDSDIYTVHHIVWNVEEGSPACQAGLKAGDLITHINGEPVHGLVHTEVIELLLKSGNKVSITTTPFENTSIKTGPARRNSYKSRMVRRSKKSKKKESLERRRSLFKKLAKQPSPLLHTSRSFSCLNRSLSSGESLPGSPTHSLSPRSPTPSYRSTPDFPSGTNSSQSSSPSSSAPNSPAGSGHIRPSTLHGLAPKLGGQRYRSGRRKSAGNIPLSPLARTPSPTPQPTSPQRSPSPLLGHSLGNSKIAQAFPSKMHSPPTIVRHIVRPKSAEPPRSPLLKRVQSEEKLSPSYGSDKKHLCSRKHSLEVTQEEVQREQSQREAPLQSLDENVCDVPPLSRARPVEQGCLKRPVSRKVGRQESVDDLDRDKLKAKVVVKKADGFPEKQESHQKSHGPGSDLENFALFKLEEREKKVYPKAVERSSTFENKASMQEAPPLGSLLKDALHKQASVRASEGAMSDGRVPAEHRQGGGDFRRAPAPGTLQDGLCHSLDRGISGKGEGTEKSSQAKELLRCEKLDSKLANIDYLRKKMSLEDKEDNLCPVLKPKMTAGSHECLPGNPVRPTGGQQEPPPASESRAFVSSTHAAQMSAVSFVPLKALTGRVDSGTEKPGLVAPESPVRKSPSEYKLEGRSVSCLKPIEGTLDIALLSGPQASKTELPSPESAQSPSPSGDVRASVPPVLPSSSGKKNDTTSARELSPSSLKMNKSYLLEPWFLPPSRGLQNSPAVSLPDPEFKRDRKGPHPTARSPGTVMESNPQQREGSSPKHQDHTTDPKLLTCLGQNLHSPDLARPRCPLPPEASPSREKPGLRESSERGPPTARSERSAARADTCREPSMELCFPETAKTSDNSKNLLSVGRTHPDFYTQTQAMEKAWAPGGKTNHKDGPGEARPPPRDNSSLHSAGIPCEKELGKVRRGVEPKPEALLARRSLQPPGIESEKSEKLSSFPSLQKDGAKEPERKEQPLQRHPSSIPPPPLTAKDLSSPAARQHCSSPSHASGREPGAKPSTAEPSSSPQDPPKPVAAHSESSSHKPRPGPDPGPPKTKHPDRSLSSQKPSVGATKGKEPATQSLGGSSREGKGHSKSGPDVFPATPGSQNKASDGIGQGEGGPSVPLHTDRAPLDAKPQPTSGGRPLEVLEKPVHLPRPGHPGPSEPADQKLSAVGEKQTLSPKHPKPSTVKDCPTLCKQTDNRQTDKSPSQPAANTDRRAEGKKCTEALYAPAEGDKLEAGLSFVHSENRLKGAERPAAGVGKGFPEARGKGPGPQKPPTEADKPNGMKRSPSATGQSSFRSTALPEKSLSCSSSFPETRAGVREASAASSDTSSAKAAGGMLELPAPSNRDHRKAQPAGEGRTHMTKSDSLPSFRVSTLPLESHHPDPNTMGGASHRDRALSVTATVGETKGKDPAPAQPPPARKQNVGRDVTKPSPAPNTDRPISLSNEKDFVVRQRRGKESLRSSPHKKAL

As a reminder, the inhibition is the drop in the measured response relative to a control, in per cent. For the molecule `CCN1CCN(Cc2ccc(NC(=O)c3ccc(C)c(/C=C/c4cnc5[nH]ccc5c4OC)c3)cc2C(F)(F)F)CC1`, the inhibition in experiment [1] came out at 11.4%; in [2] it was 47%; in experiment [3] it was 7.3%; in experiment [4] it was 6%.

Turning to `CCN1CCN(Cc2ccc(NC(=O)c3ccc(C)c(Oc4ccnc5[nH]ccc45)c3)cc2C(F)(F)F)CC1`, the inhibition in [5] was 32.3%; in experiment [6], 16%; in experiment [7] it was 72.6%; in [8], -10%; in [10], 91.1%; in [11], 16.9%. For the same molecule, the inhibition in experiment [12] came to 4.1%. The inhibition result in experiment [9] and in [13] was “inactive” throughout.

`CNc1cc(Oc2cc(C(=O)Nc3cc(N4CCN(C)CC4)cc(C(F)(F)F)c3)ccc2C)ncn1`: the inhibition in experiment [14] was -2%; in experiment [15] it was -7.1%; in experiment [16], 30.2%.
